Assay results taken from the supplement of paper PMC10627819.

Experiments:
Assay in all cases: fitness (endpoint OD595 vs no drug) (fraction); higher = more growth
S. aureus Newman = tested on: S. aureus Newman
Summary of the method: (§1)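 Growth medium was TSB, LB Lennox or CY, and plates were kept at 37 °C. Inoculation was at OD595 0.01 in 384-well plates, at 30 µl per well or 55 µl for S. pneumoniae. OD595 was monitored every 30 min for 14 h and background-subtracted using the first reading. Fitness is the optical density on entering stationary phase divided by the robust mean of no-drug controls, with values capped at 1.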

S. aureus DSM 20231 = tested on: S. aureus DSM 20231
Summary of the method: as §1

S. pneumoniae D39V = tested on: S. pneumoniae D39V
Summary of the method: as §1

B. subtilis 168 = tested on: B. subtilis 168
Summary of the method: as §1
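Also: OD595 on entry to stationary phase over no-drug wells; at most 1.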

O=C(O[C@@H]1Cc2c(O)cc(O)cc2O[C@@H]1c1cc(O)c(O)c(O)c1)c1cc(O)c(O)c(O)c1 [EGCG] + CO/N=C(\C(=O)N[C@@H]1C(=O)N2C(C(=O)[O-])=C(C[N+]3(C)CCCC3)CS[C@H]12)c1csc(N)n1 [Cefepime]
fitness
Conditions	first compound 12.5 µg/mL	first compound 25 µg/mL	first compound 50 µg/mL
S. aureus DSM 20231, partner 0.125 µg/mL	0.736	0.725	–
S. aureus DSM 20231, partner 0.25 µg/mL	0.634	0.563	0.583
S. aureus DSM 20231, partner 0.5 µg/mL	0.616	0.576	0.587
S. aureus Newman, partner 0.125 µg/mL	0.789	0.722	0.72
S. aureus Newman, partner 0.25 µg/mL	0.736	0.685	0.678
S. aureus Newman, partner 0.5 µg/mL	0.656	0.724	0.657
S. pneumoniae D39V, partner 0.007 µg/mL	0.958	0.951	0.985
S. pneumoniae D39V, partner 0.0078 µg/mL	≥ 1	0.874	0.939
S. pneumoniae D39V, partner 0.014 µg/mL	0.998	0.987	0.998
S. pneumoniae D39V, partner 0.0155 µg/mL	0.96	≥ 1	0.931
S. pneumoniae D39V, partner 0.028 µg/mL	0.928	0.979	0.973
S. pneumoniae D39V, partner 0.031 µg/mL	0.733	0.716	0.853

N[C@@H]1CONC1=O [Cycloserine D] + Cn1nnc(-c2ccc(-c3ccc(N4C[C@H](CO)OC4=O)cc3F)cn2)n1 [Tedizolid]
fitness
Conditions	first compound 0.375 µg/mL	first compound 0.75 µg/mL	first compound 1.5 µg/mL
S. aureus DSM 20231, partner 0.0625 µg/mL	0.95	0.942	0.923
S. aureus DSM 20231, partner 0.125 µg/mL	0.738	0.802	0.827
S. aureus Newman, partner 0.0625 µg/mL	0.956	0.938	0.99
S. aureus Newman, partner 0.125 µg/mL	0.925	0.842	0.855

N[C@@H]1CONC1=O [Cycloserine D] + CN[C@@H]1[C@H](O)[C@H](NC)[C@H]2O[C@@]3(O)C(=O)C[C@@H](C)O[C@H]3O[C@@H]2[C@H]1O [Spectinomycin]
fitness
Conditions	first compound 0.125 µg/mL	first compound 0.25 µg/mL	first compound 0.375 µg/mL	first compound 0.5 µg/mL	first compound 0.75 µg/mL	first compound 1.5 µg/mL
B. subtilis 168, partner 2 µg/mL	≥ 1	0.985	–	0.992	–	–
B. subtilis 168, partner 4 µg/mL	0.947	0.934	–	0.957	–	–
B. subtilis 168, partner 8 µg/mL	0.906	0.924	–	0.879	–	–
S. aureus DSM 20231, partner 4 µg/mL	–	–	0.977	–	0.971	0.969
S. aureus DSM 20231, partner 8 µg/mL	–	–	0.944	–	0.981	0.932
S. aureus DSM 20231, partner 16 µg/mL	–	–	0.842	–	0.877	0.882
S. aureus Newman, partner 4 µg/mL	–	–	0.96	–	0.924	0.908
S. aureus Newman, partner 8 µg/mL	–	–	≥ 1	–	0.94	0.917
S. aureus Newman, partner 16 µg/mL	–	–	0.941	–	0.894	0.875

fitness, one replicate
Conditions	first compound 0.375 µg/mL	first compound 0.75 µg/mL	first compound 1.5 µg/mL
S. aureus DSM 20231, partner 32 µg/mL	0.726	0.786	0.736
S. aureus DSM 20231, partner 64 µg/mL	0.0858	0.0864	0.0563
S. aureus Newman, partner 32 µg/mL	0.575	0.596	0.501
S. aureus Newman, partner 64 µg/mL	0.0802	0.0265	0.0316

N[C@@H]1CONC1=O [Cycloserine D] + CO[C@@]12[C@H](COC(N)=O)C3=C(C(=O)C(C)=C(N)C3=O)N1C[C@@H]1N[C@@H]12 [Mitomycin C]
fitness
Conditions	first compound 0.375 µg/mL	first compound 0.75 µg/mL	first compound 1.5 µg/mL
S. aureus DSM 20231, partner 0.0156 µg/mL	0.746	0.739	0.71
S. aureus DSM 20231, partner 0.0312 µg/mL	0.716	0.716	0.711
S. aureus DSM 20231, partner 0.0625 µg/mL	0.528	0.542	0.513
S. aureus Newman, partner 0.0156 µg/mL	0.682	0.71	0.732
S. aureus Newman, partner 0.0312 µg/mL	0.656	0.651	0.693
S. aureus Newman, partner 0.0625 µg/mL	0.567	0.5	0.555

N[C@@H]1CONC1=O [Cycloserine D] + CN1C2=CC=CC=C2N=C3C1=CC=CC3=O [Pyocyanin]
fitness
Conditions	first compound 0.125 µg/mL	first compound 0.25 µg/mL	first compound 0.375 µg/mL	first compound 0.5 µg/mL	first compound 0.75 µg/mL	first compound 1.5 µg/mL
B. subtilis 168, partner 1.25 µg/mL	0.878	0.871	–	0.877	–	–
B. subtilis 168, partner 2.5 µg/mL	0.833	0.781	–	0.828	–	–
B. subtilis 168, partner 5 µg/mL	0.697	0.667	–	0.623	–	–
S. aureus DSM 20231, partner 1.25 µg/mL	–	–	0.983	–	0.985	0.962
S. aureus DSM 20231, partner 2.5 µg/mL	–	–	0.884	–	0.875	0.865
S. aureus DSM 20231, partner 5 µg/mL	–	–	0.826	–	0.855	0.777
S. aureus Newman, partner 1.25 µg/mL	–	–	0.85	–	0.856	0.868
S. aureus Newman, partner 2.5 µg/mL	–	–	0.8	–	0.764	0.826
S. aureus Newman, partner 5 µg/mL	–	–	0.457	–	0.378	0.42

N[C@@H]1CONC1=O [Cycloserine D] + COc1ccc(C[C@H](N)C(=O)N[C@H]2[C@@H](O)[C@H](n3cnc4c(N(C)C)ncnc43)O[C@@H]2CO)cc1 [Puromycin]
fitness
Conditions	first compound 0.125 µg/mL	first compound 0.25 µg/mL	first compound 0.375 µg/mL	first compound 0.5 µg/mL	first compound 0.75 µg/mL	first compound 1.5 µg/mL
B. subtilis 168, partner 0.39 µg/mL	0.958	0.889	–	0.955	–	–
B. subtilis 168, partner 0.78 µg/mL	0.931	0.894	–	0.968	–	–
B. subtilis 168, partner 1.56 µg/mL	0.959	0.929	–	0.915	–	–
S. aureus DSM 20231, partner 0.39 µg/mL	–	–	≥ 1	–	≥ 1	≥ 1
S. aureus DSM 20231, partner 0.78 µg/mL	–	–	≥ 1	–	≥ 1	≥ 1
S. aureus DSM 20231, partner 1.56 µg/mL	–	–	1	–	≥ 1	≥ 1
S. aureus Newman, partner 0.39 µg/mL	–	–	≥ 1	–	≥ 1	≥ 1
S. aureus Newman, partner 0.78 µg/mL	–	–	0.999	–	0.977	0.989
S. aureus Newman, partner 1.56 µg/mL	–	–	≥ 1	–	0.998	≥ 1

fitness, S. aureus DSM 20231, one replicate
Conditions	first compound 0.375 µg/mL	first compound 0.75 µg/mL	first compound 1.5 µg/mL
partner 3.12 µg/mL	≥ 1	≥ 1	0.977
partner 6.24 µg/mL	0.748	0.718	0.687
